Data set [1] is filed under the species Cavia porcellus. Nature of the data set: Schultz-Dale (SD) reaction in tracheal strip isolated from passively sensitized guinea pigs. In kind it is functional.
Data set [2] concerns Cavia porcellus. Nature of the data set: Mean collapse time in antigen induced bronchospasm in passively sensitized guinea pigs at 10 mg/kg peroral dose. In kind it is functional. Particulars: route oral.
For data set [3], the target named is Phosphodiesterase 4 (Canis familiaris). The data set is described as follows: Inhibition of Canine Tracheal Smooth Muscle PDE 4.
The test system of data set [4] is Mus musculus. Nature of the data set: Acute lethal toxicity in mice on peroral administration. In kind it is organism-based. Particulars: in vivo, po.
Data set [5] deals with Cavia porcellus. The data set is described as follows: Mean collapse time in antigen induced bronchospasm in passively sensitized guinea pigs at 0.1 mg/kg peroral dose. In kind it is functional. Particulars: route oral.
Data set [6] deals with Cavia porcellus. Nature of the data set: Mean collapse time in antigen induced bronchospasm in passively sensitized guinea pigs at 1 mg/kg peroral dose. In kind it is functional. Particulars: route oral.
Data set [7] has as its system Cavia porcellus. Nature of the data set: Mean collapse time in antigen induced bronchospasm in passively sensitized guinea pigs at 5 mg/kg peroral dose. Type of data set: functional. Particulars: route oral.
The species entered for data set [8] is Cavia porcellus. Nature of the data set: Effect on histamine induced contraction of guinea pig tracheal strips. Type of data set: functional. Particulars: Trachea.
The species entered for data set [9] is Cavia porcellus. The data set is described as follows: Effect on carbachol induced contraction of guinea pig tracheal strips. Particulars: Trachea. Type of data set: functional.
Data set [10] deals with Cavia porcellus. The data set is described as follows: Mean collapse time in antigen induced bronchospasm in passively sensitized guinea pigs at 50 mg/kg peroral dose. Type of data set: functional. Particulars: route oral.
Data set [11] is filed under the species Cavia porcellus. The data set is described as follows: Effect on LTD4 induced contraction of guinea pig tracheal strips. Particulars: Trachea. In kind it is functional.
In data set [12] the target is Phosphodiesterase 4 (Canis familiaris). The data set is described as follows: Inhibition of Canine Tracheal Smooth Muscle PDE 4. This is another data set of the same source.
Data set [13] has as its system Cavia porcellus. The data set is described as follows: Mean collapse time in antigen induced bronchospasm in passively sensitized guinea pigs at 0.50 mg/kg peroral dose. In kind it is functional. Particulars: dose 0.5 mg/kg; route oral.
In data set [14] the test system is Cavia porcellus. Nature of the data set: Mean collapse time in antigen induced bronchospasm in passively sensitized guinea pigs at 25 mg/kg peroral dose. Type of data set: functional. Particulars: route oral.

Turning to `CCCCCCn1cnc2c3cccnc3n(-c3ccccc3)c(=O)c21`, the half-inhibitory concentration (IC50) in data set [1] is above 30 µM.
Same read-out and setting: for `Oc1c2nnnc-2c2cccnc2n1-c1ccccc1` the value was above 30 µM; for `CCCCn1cnc2c3cccnc3n(-c3ccccc3)c(=O)c21`, above 30 µM; for `Cc1cccc(-n2c(O)c3ncnc-3c3cccnc32)c1`, above 30 µM.
Same read-out and setting: the figure for `CC(C)n1cnc2c(=O)n(-c3ccccc3)c3ncccc3c21` is above 30 µM.
Take `CC(C)Cn1cnc2c3cccnc3n(-c3ccccc3)c(=O)c21`: the MCT in [2] was 551 s. Further, the IC50 is 0.15 µM in data set [3] and 6.78 µM in [1]. This molecule also returned an MLD in data set [4] of 300 mg/kg.
Turning to `CCCCn1c(=O)c2ncn(C)c2c2cccnc21`, the MCT in data set [2] is reported as 335 s. Also, in [1], the IC50 came out at 13 µM. This molecule also yielded an MLD in data set [4] of 300 mg/kg.
In the case of `CCN(CC)CCCn1cnc2c3cccnc3n(-c3ccccc3)c(=O)c21`, the concentration for half-maximal inhibition (IC50) in data set [1] was above 30 µM.
Regarding `CCCCn1c(O)c2ncnc-2c2cccnc21`, the IC50 in data set [1] was above 30 µM.
Regarding `CCOC(=O)c1ccc(-n2c(O)c3ncnc-3c3cccnc32)cc1`, the IC50 in data set [1] was above 30 µM.
For `Oc1c2ncnc-2c2cccnc2n1-c1ccccc1`, the MCT was 301 s in data set [5]; 457 s in data set [2]; 397 s in data set [6]; 483 s in data set [7]; 491 s in [10]; 410 s in data set [13]. Also, the IC50 in data set [1] stood at 2.18 µM; in [8] it was 5.72 µM; in data set [9], 10.2 µM; in data set [11], 3.04 µM; in [12] it was 12 µM. The MLD in [4] is above 300 mg/kg.
For `CCn1cnc2c3cccnc3n(-c3ccccc3)c(=O)c21`, the IC50 in data set [3] was determined as 2 µM; in [1] it was 0.47 µM. For the same molecule, the MLD in data set [4] was found to be 100 mg/kg.
For the molecule `O=c1c2c(ncn2CCCN2CCOCC2)c2cccnc2n1-c1ccccc1`, in data set [1], the half-maximal inhibitory concentration (IC50) is above 30 µM.
Consider `Cn1c(=O)c2nc[nH]c2n(C)c1=O.O` [THEOPHYLLINE], for which the MCT turned out to be 343 s in [2], 389 s in [14] and 414 s in data set [10].
For `CCOC(=O)c1cccc(-n2c(O)c3ncnc-3c3cccnc32)c1`, the IC50 in data set [1] is above 30 µM.
`COc1cccc(-n2c(O)c3ncnc-3c3cccnc32)c1`: the IC50 in data set [1] is above 30 µM.
Same read-out and setting: the figure for `Oc1c2ncnc-2c2ccccc2n1-c1ccccc1` is above 30 µM.
On to `O=C(O)Cn1cnc2c3cccnc3n(-c3ccccc3)c(=O)c21`, for which the IC50 in [1] was above 30 µM.
For `Oc1c2ncnc-2c2cccnc2n1-c1cccc(Cl)c1`, the IC50 in data set [1] was above 30 µM.
Consider `CCCn1cnc2c3cccnc3n(-c3ccccc3)c(=O)c21`, for which the MCT in data set [2] was 505 s. The half-inhibitory concentration (IC50) was determined as 0.52 µM in data set [3] and 8.3 µM in [1]. In data set [4], this molecule had an MLD of 200 mg/kg.
Regarding `Cc1nc2c(O)n(-c3ccccc3)c3ncccc3c-2n1`, the IC50 in [1] was above 30 µM.
In the case of `CCCCn1c(=O)c2c(ncn2C)c2cccnc21`, the MCT in data set [2] stood at 215 s. The half-maximal inhibitory concentration (IC50) came to 3.6 µM in data set [3] and 3.57 µM in [1]. The molecule further gave an MLD in data set [4] of 200 mg/kg.
In the case of `Cc1ccc(-n2c(O)c3ncnc-3c3cccnc32)cc1`, the IC50 in data set [1] was above 30 µM.
On to `COc1ccc(C2CNC(=O)C2)cc1OC1CCCC1` (stereo not given) [ROLIPRAM], for which the IC50 in data set [1] was 0.34 µM.
Take `CC(C)n1cnc2c3cccnc3n(-c3ccccc3)c(=O)c21`: the IC50 in data set [3] stood at 2.5 µM; in [1], 4.98 µM. Further, the MLD in data set [4] is 200 mg/kg.
In the case of `Cn1cnc2c(=O)n(-c3ccccc3)c3ncccc3c21`, the IC50 in [1] is above 30 µM.
As for `COc1ccc(-n2c(O)c3ncnc-3c3cccnc32)cc1`, the IC50 in [1] is above 30 µM.
Turning to `Oc1c2nc(-c3ccccc3)nc-2c2cccnc2n1-c1ccccc1`, the IC50 in data set [1] was above 30 µM.
For `Cn1cnc2c3cccnc3n(-c3ccccc3)c(=O)c21`, the MCT in data set [2] was determined as 543 s. Besides, the IC50 is 6.6 µM in [3] and 0.22 µM in [1]. Besides, in [4], the MLD is 100 mg/kg.
